How the values were obtained:
Assay in all cases: relative viability (nuclei count vs DMSO), 5 days (fraction); higher = more cells survive
[1] = compound: CC1=C(C(=O)N2C=CSC2=N1)CCN3CCC(=C(C4=CC=CC=C4)C5=CC=C(C=C5)F)CC3 + O=C(CCCCCCC(=O)Nc1ccccc1)NO [Vorinostat] (partner 1 µM)
How it was run: (§1)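 Nuclei were stained with Hoechst during a one-step fixation (final 0.05% Triton X-100, 1% formaldehyde, 1 ug/ml Hoechst) carried out 5 days after dosing, then counted on 4× images. The cells, lung cancer lines in 1536-well plates, had been dosed by pin tool the day after seeding with one drug alone or a fixed anchor-drug dose plus five library-drug doses (not always all listed) in √10 steps. Relative viability is the nuclei count in treated wells divided by that in vehicle wells, and each value is the median of duplicate plates.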

[2] = compound: CC1=C(C(=O)N2C=CSC2=N1)CCN3CCC(=C(C4=CC=CC=C4)C5=CC=C(C=C5)F)CC3 + Cc1nc(Nc2ncc(C(=O)Nc3c(C)cccc3Cl)s2)cc(N2CCN(CCO)CC2)n1 [Dasatinib] (partner 0.075 µM)
How it was run: as §1

[3] = compound: CC1=C(C(=O)N2C=CSC2=N1)CCN3CCC(=C(C4=CC=CC=C4)C5=CC=C(C=C5)F)CC3 + CS(=O)(=O)N1CCN(Cc2cc3nc(-c4cccc5[nH]ncc45)nc(N4CCOCC4)c3s2)CC1 [Pictilisib] (partner 1 µM)
How it was run: as §1

[4] = compound: CC1=C(C(=O)N2C=CSC2=N1)CCN3CCC(=C(C4=CC=CC=C4)C5=CC=C(C=C5)F)CC3 + C[C@@H](Oc1cc(-c2cnn(C3CCNCC3)c2)cnc1N)c1c(Cl)ccc(F)c1Cl [Crizotinib] (partner 1 µM)
How it was run: as §1

Cell Line | relative viability ([1]; first compound 0.08 µM) | relative viability ([1]; first compound 0.253 µM) | relative viability ([1]; first compound 0.8 µM) | relative viability ([1]; first compound 2.53 µM) | relative viability ([1]; first compound 8 µM) | relative viability ([2]; first compound 0.08 µM) | relative viability ([2]; first compound 0.253 µM) | relative viability ([2]; first compound 0.8 µM) | relative viability ([2]; first compound 2.53 µM) | relative viability ([2]; first compound 8 µM) | relative viability ([3]; first compound 0.253 µM) | relative viability ([3]; first compound 0.8 µM) | relative viability ([3]; first compound 2.53 µM) | relative viability ([3]; first compound 8 µM) | relative viability ([4]; first compound 0.253 µM) | relative viability ([4]; first compound 0.8 µM) | relative viability ([4]; first compound 2.53 µM) | relative viability ([4]; first compound 8 µM) | relative viability ([3]; first compound 0.08 µM) | relative viability ([4]; first compound 0.08 µM)
NCI-H650 | 0.731 | 0.395 | 0.482 | 0.486 | 0.369 | 0.474 | 0.504 | 0.388 | 0.546 | 0.46 | 0.763 | 0.786 | 0.99 | 0.71 | 0.791 | 0.377 | 0.718 | 0.608 | – | –
NCI-H661 | 0.765 | 0.761 | 0.817 | 0.838 | 0.406 | 0.862 | 0.847 | 0.75 | 0.913 | 0.628 | 0.382 | 0.338 | 0.352 | 0.361 | 1.01 | 1.21 | 1 | 0.801 | 0.404 | 0.848
NCI-H727 | 1.08 | 1.3 | 1.16 | 1.13 | 1.07 | 0.319 | 0.338 | 0.394 | 0.396 | 0.319 | 0.351 | 0.35 | 0.354 | 0.423 | 0.934 | 0.741 | 0.948 | 0.59 | 0.352 | 0.846
NCI-H838 | 0.688 | 0.692 | 0.738 | 0.8 | 0.573 | 0.295 | 0.27 | 0.258 | 0.31 | 0.282 | 0.489 | 0.466 | 0.58 | 0.444 | 0.854 | 0.837 | 0.925 | 0.616 | 0.439 | 0.583
NCI-H1355 | 0.588 | 0.602 | 0.6 | 0.611 | 0.529 | 0.698 | 0.605 | 0.769 | 0.771 | 0.632 | 0.504 | 0.534 | 0.472 | 0.385 | 1.16 | 1.04 | 1.17 | 0.712 | 0.445 | 1.12
NCI-H1437 | 0.702 | 0.867 | 0.901 | 0.9 | 0.386 | 0.471 | 0.346 | 0.434 | 0.426 | 0.339 | 0.446 | 0.388 | 0.406 | 0.485 | 0.902 | 0.978 | 1.03 | 0.604 | – | –
NCI-H1650 | 0.426 | 0.525 | 0.559 | 0.593 | 0.327 | 0.436 | 0.324 | 0.297 | 0.405 | 0.263 | 0.682 | 0.519 | 0.586 | 0.389 | 1.14 | 0.957 | 1.01 | 0.872 | 0.586 | 0.892
NCI-H1651 | 0.552 | 0.547 | 0.557 | 0.616 | 0.452 | 0.406 | 0.535 | 0.423 | 0.434 | 0.341 | 0.676 | 0.51 | 0.684 | 0.495 | 0.829 | 0.891 | 0.971 | 0.773 | 0.621 | 0.83
